Assay results published in the supplement of paper PMC10307832.

Key:
Test in all cases: relative viability (nuclei count vs DMSO), 5 days (fraction); higher = more cells survive
[1] = compound: NCC(=O)Nc1ccc(-n2nc(C(F)(F)F)cc2-c2ccc3c(ccc4ccccc43)c2)cc1 + O=C(c1cc(Cc2n[nH]c(=O)c3ccccc23)ccc1F)N1CCN(C(=O)C2CC2)CC1 [Olaparib] (partner 8 µM)
Procedure, shortened: (§1)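 Lung cancer cell lines were seeded in 1536-well plates and dosed by pin tool the next day, with either a single drug or a fixed anchor-drug dose combined with five library-drug doses (not always all listed) spaced in √10 steps. Five days later, one step fixed the cells and stained their nuclei (final 0.05% Triton X-100, 1% formaldehyde, 1 ug/ml Hoechst), and nuclei were counted on 4× images. Relative viability is the nuclei count in treated wells divided by the count in vehicle wells, and each value is the median of duplicate plates.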

[2] = compound: NCC(=O)Nc1ccc(-n2nc(C(F)(F)F)cc2-c2ccc3c(ccc4ccccc43)c2)cc1 + N=C(N)NC(=N)NCCc1ccccc1 [Phenformin] (partner 250 µM)
Procedure, shortened: as §1

kb NB 142-70 + Alpelisib = compound: C1CSC2=C(C(=O)N1)SC3=C2C=C(C=C3)O [kb NB 142-70] + Cc1nc(NC(=O)N2CCC[C@H]2C(N)=O)sc1-c1ccnc(C(C)(C)C(F)(F)F)c1 [Alpelisib] (partner 2 µM)
Procedure, shortened: as §1

kb NB 142-70 + Dasatinib = compound: C1CSC2=C(C(=O)N1)SC3=C2C=C(C=C3)O [kb NB 142-70] + Cc1nc(Nc2ncc(C(=O)Nc3c(C)cccc3Cl)s2)cc(N2CCN(CCO)CC2)n1 [Dasatinib] (partner 0.075 µM)
Procedure, shortened: as §1

kb NB 142-70 + Lapatinib = compound: C1CSC2=C(C(=O)N1)SC3=C2C=C(C=C3)O [kb NB 142-70] + CS(=O)(=O)CCNCc1ccc(-c2ccc3ncnc(Nc4ccc(OCc5cccc(F)c5)c(Cl)c4)c3c2)o1 [Lapatinib] (partner 2 µM)
Procedure, shortened: as §1

Cell Line | relative viability ([1]; first compound 0.02 µM) | relative viability ([1]; first compound 0.06325 µM) | relative viability ([1]; first compound 0.2 µM) | relative viability ([1]; first compound 0.6325 µM) | relative viability ([1]; first compound 2 µM) | relative viability ([2]; first compound 0.02 µM) | relative viability ([2]; first compound 0.06325 µM) | relative viability ([2]; first compound 0.2 µM) | relative viability ([2]; first compound 0.6325 µM) | relative viability ([2]; first compound 2 µM) | relative viability (kb NB 142-70 + Alpelisib; first compound 0.1 µM) | relative viability (kb NB 142-70 + Alpelisib; first compound 1 µM) | relative viability (kb NB 142-70 + Alpelisib; first compound 3.162 µM) | relative viability (kb NB 142-70 + Dasatinib; first compound 0.1 µM) | relative viability (kb NB 142-70 + Dasatinib; first compound 1 µM) | relative viability (kb NB 142-70 + Dasatinib; first compound 3.162 µM) | relative viability (kb NB 142-70 + Lapatinib; first compound 0.1 µM) | relative viability (kb NB 142-70 + Lapatinib; first compound 1 µM) | relative viability (kb NB 142-70 + Lapatinib; first compound 3.162 µM)
201T | 0.867 | 0.868 | 0.856 | 0.879 | 0.844 | 0.448 | 0.489 | 0.408 | 0.466 | 0.446 | 1.01 | 1.02 | 1 | 0.596 | 0.47 | 0.565 | 1.05 | 1.06 | 1.06
A549 | 0.294 | 0.291 | 0.339 | 0.29 | 0.239 | 0.0913 | 0.168 | 0.0781 | 0.198 | 0.17 | 0.714 | 0.654 | 0.14 | – | – | – | 0.979 | 0.928 | 0.428
A-427 | 0.701 | 0.742 | 0.679 | 0.776 | 0.781 | – | 0.411 | 0.315 | 0.334 | 0.352 | 1.01 | 1.23 | 1.11 | 0.8 | 0.612 | 0.607 | 1.12 | 1.14 | 1.04
ABC-1 | 0.594 | 0.671 | – | 0.921 | 0.78 | 0.248 | 0.233 | – | 0.225 | 0.245 | 1.16 | 0.932 | 0.796 | 0.663 | 0.49 | 0.361 | 0.946 | 1.22 | 1.07
BEN | 1 | 1.23 | 0.993 | 1.21 | 1.03 | 0.249 | 0.239 | 0.302 | 0.269 | 0.228 | 0.922 | 0.982 | 0.689 | 0.307 | 0.303 | 0.209 | 0.731 | 0.66 | 0.519
CAL-12T | 0.761 | 0.735 | 0.659 | 0.711 | 0.765 | 0.572 | 0.601 | 0.586 | 0.576 | 0.627 | 1.22 | 1.5 | 0.644 | 0.408 | 0.375 | 0.414 | 0.673 | 0.673 | 0.496
COR-L23 | 0.368 | 0.368 | 0.352 | 0.393 | 0.366 | 0.394 | 0.434 | 0.439 | 0.44 | 0.417 | 0.757 | 0.808 | 0.282 | 0.529 | 0.526 | 0.311 | 0.972 | 1 | 0.586
COR-L 105 | 0.696 | 0.772 | 0.75 | 0.766 | 0.638 | 0.408 | 0.517 | 0.5 | 0.539 | 0.492 | 1.11 | 0.989 | 1.03 | 0.363 | 0.33 | 0.345 | 0.382 | 0.427 | 0.361
Calu-6 | 0.568 | 0.578 | 0.553 | 0.562 | 0.571 | – | – | – | – | – | 0.984 | 0.867 | 0.478 | – | – | – | 1.07 | 0.972 | 0.627
ChaGo-K-1 | 0.443 | 0.488 | 0.388 | 0.443 | 0.405 | 0.438 | 0.495 | 0.443 | 0.522 | 0.519 | – | – | – | 0.509 | 0.559 | 0.543 | – | – | –
EBC-1 | 0.693 | 0.774 | 0.836 | 0.623 | 0.7 | – | – | – | – | – | 0.864 | 0.798 | 0.491 | – | – | – | 0.233 | 0.211 | 0.217
EKVX | 0.973 | 0.966 | 0.882 | 0.935 | 1.13 | 0.228 | 0.273 | 0.218 | 0.236 | 0.219 | 0.854 | 0.849 | 0.96 | 0.559 | 0.289 | 0.729 | 0.263 | 0.216 | 0.235
EMC-BAC-2 | 0.433 | 0.514 | 0.539 | 0.483 | 0.5 | 0.472 | 0.488 | 0.549 | 0.56 | 0.541 | 0.74 | 0.754 | 0.572 | 0.363 | 0.305 | 0.235 | 0.942 | 0.898 | 0.743
EPLC-272H | 0.731 | 0.699 | 1.05 | 0.848 | 0.851 | 0.289 | 0.366 | 0.261 | 0.324 | 0.294 | 0.906 | 0.899 | 0.509 | 0.417 | 0.34 | 0.149 | 0.937 | 0.817 | 0.649
H3255 | 0.593 | 0.593 | 0.577 | 0.607 | 0.622 | 0.343 | 0.341 | 0.364 | 0.334 | 0.435 | 0.621 | 0.754 | 0.768 | 0.297 | 0.404 | 0.405 | 0.271 | 0.195 | 0.234
